Test results: ChEMBL document CHEMBL3885861, “Open TG-GATES”

Organism: Rattus norvegicus
Assay: Open TG-GATES - Regimen: Single
Format: toxicity, organism-based, Sprague-Dawley
Set-up: regimen Single, gender Male, age 6 weeks
Details: in vivo, po, route gavage; for Bas / Eos / Fbg / Hb / Ht / Lym / MCHC / Mono / Plat / RBC / Ret / WBC / MCH / Neu / PT: tissue Blood; for KIDNEY_L / KIDNEY_R / KIDNEY_TOTAL: tissue Kidney; for LIVER: tissue Liver
[1] = 40 mg/kg, 24 h, tissue Plasma, dose level Low
[2] = 120 mg/kg, 3 h, dose level Middle
[3] = 120 mg/kg, 3 h, tissue Plasma, dose level Middle
[4] = 120 mg/kg, 6 h, dose level Middle
[5] = 120 mg/kg, 6 h, tissue Plasma, dose level Middle
[6] = 120 mg/kg, 9 h, dose level Middle
[7] = 120 mg/kg, 9 h, tissue Plasma, dose level Middle
[8] = 120 mg/kg, 24 h, dose level Middle
[9] = 120 mg/kg, 24 h, tissue Plasma, dose level Middle
[10] = 400 mg/kg, 3 h, dose level High
[11] = 400 mg/kg, 3 h, tissue Plasma, dose level High
[12] = 400 mg/kg, 6 h, dose level High
[13] = 400 mg/kg, 6 h, tissue Plasma, dose level High
[14] = 400 mg/kg, 9 h, dose level High
[15] = 400 mg/kg, 9 h, tissue Plasma, dose level High
[16] = 400 mg/kg, 24 h, dose level High
[17] = 400 mg/kg, 24 h, tissue Plasma, dose level High

CCC(C)(C)C(=O)O[C@H]1C[C@@H](C)C=C2C=C[C@H](C)[C@H](CC[C@@H]3C[C@@H](O)CC(=O)O3)[C@H]21 [SIMVASTATIN]
TC [1]: 80.8 mg/dL
TG [1]: 87.4 mg/dL
TP [1]: 5.4 g/dL
gamma-GTP [1]: 1.8 IU/L
TERMINAL_BW [2]: 200.4 g
Bas [2]: 0%
Eos [2]: 1%
Fbg [2]: 194.4 mg/dL
Hb [2]: 12.5 g/dL
Ht [2]: 37.9%
Lym [2]: 81.8%
MCHC [2]: 32.9%
Mono [2]: 6.4%
Plat [2]: 111.3 x10_4/uL
RBC [2]: 573.6 x10_4/ul
Ret [2]: 9.1%
WBC [2]: 131.2 x10_2/uL
KIDNEY_L [2]: 0.9 g
KIDNEY_R [2]: 1 g
KIDNEY_TOTAL [2]: 1.9 g
LIVER [2]: 9.6 g
ALP [3]: 1022 IU/L
ALT [3]: 34.2 IU/L
AST [3]: 66.6 IU/L
BUN [3]: 11.6 mg/dL
CRE [3]: 0.5 mg/dL
DBIL [3]: 0.032 mg/dL
IP [3]: 8.9 mg/dL
K [3]: 4.7 meq/L
LDH [3]: 117.2 IU/L
Na [3]: 137.8 meq/L
PL [3]: 134.8 mg/dL
RALB [3]: 3.5 g/dL
TBIL [3]: 0.3 mg/dL
TC [3]: 74 mg/dL
TG [3]: 56 mg/dL
TP [3]: 5.5 g/dL
gamma-GTP [3]: 1.6 IU/L
TERMINAL_BW [4]: 200.1 g
Bas [4]: 0%
Eos [4]: 0.6%
Fbg [4]: 203.2 mg/dL
Hb [4]: 12.9 g/dL
Ht [4]: 39.4%
Lym [4]: 77.6%
MCH [4]: 21.6 pg
MCHC [4]: 32.9%
Mono [4]: 6%
Neu [4]: 15.8%
PT [4]: 11.9 s
Plat [4]: 114.7 x10_4/uL
RBC [4]: 600.4 x10_4/ul
Ret [4]: 8.4%
WBC [4]: 123.6 x10_2/uL
KIDNEY_L [4]: 0.9 g
KIDNEY_R [4]: 0.9 g
KIDNEY_TOTAL [4]: 1.8 g
LIVER [4]: 8.9 g
ALP [5]: 912.2 IU/L
ALT [5]: 28.6 IU/L
AST [5]: 57.2 IU/L
CRE [5]: 0.5 mg/dL
DBIL [5]: 0.086 mg/dL
IP [5]: 9.6 mg/dL
K [5]: 4.5 meq/L
LDH [5]: 94 IU/L
Na [5]: 137.6 meq/L
PL [5]: 119 mg/dL
RALB [5]: 3.5 g/dL
TBIL [5]: 0.4 mg/dL
TC [5]: 66.4 mg/dL
TG [5]: 44 mg/dL
TP [5]: 5.4 g/dL
gamma-GTP [5]: 1.4 IU/L
TERMINAL_BW [6]: 199.1 g
Bas [6]: 0%
Eos [6]: 1%
Fbg [6]: 217.2 mg/dL
Hb [6]: 12.9 g/dL
Ht [6]: 39.5%
Lym [6]: 77%
MCH [6]: 21.6 pg
MCHC [6]: 32.6%
Mono [6]: 6%
Neu [6]: 16.6%
PT [6]: 11.8 s
Plat [6]: 106.6 x10_4/uL
RBC [6]: 598.2 x10_4/ul
Ret [6]: 9%
WBC [6]: 82.6 x10_2/uL
KIDNEY_L [6]: 0.9 g
KIDNEY_R [6]: 0.9 g
KIDNEY_TOTAL [6]: 1.8 g
LIVER [6]: 8.3 g
ALP [7]: 788.6 IU/L
ALT [7]: 30.8 IU/L
AST [7]: 57.4 IU/L
CRE [7]: 0.5 mg/dL
DBIL [7]: 0.026 mg/dL
K [7]: 4.7 meq/L
LDH [7]: 88.2 IU/L
Na [7]: 137.6 meq/L
PL [7]: 119.4 mg/dL
RALB [7]: 3.7 g/dL
TBIL [7]: 0.3 mg/dL
TC [7]: 70.6 mg/dL
TG [7]: 29.6 mg/dL
TP [7]: 5.4 g/dL
gamma-GTP [7]: 1 IU/L
TERMINAL_BW [8]: 207.4 g
Bas [8]: 0%
Eos [8]: 1%
Fbg [8]: 209.2 mg/dL
Hb [8]: 12.8 g/dL
Ht [8]: 39.1%
Lym [8]: 79.2%
MCHC [8]: 32.8%
Mono [8]: 6.2%
Neu [8]: 14%
Plat [8]: 123 x10_4/uL
RBC [8]: 586 x10_4/ul
Ret [8]: 8.3%
WBC [8]: 87 x10_2/uL
KIDNEY_L [8]: 1 g
KIDNEY_R [8]: 1 g
KIDNEY_TOTAL [8]: 2 g
ALP [9]: 811 IU/L
ALT [9]: 44 IU/L
AST [9]: 67.8 IU/L
BUN [9]: 18 mg/dL
CRE [9]: 0.5 mg/dL
DBIL [9]: 0.044 mg/dL
IP [9]: 7.5 mg/dL
K [9]: 4.7 meq/L
LDH [9]: 127.8 IU/L
Na [9]: 139.6 meq/L
PL [9]: 129.4 mg/dL
RALB [9]: 3.9 g/dL
TBIL [9]: 0.4 mg/dL
TC [9]: 69.4 mg/dL
TP [9]: 5.5 g/dL
gamma-GTP [9]: 2.4 IU/L
TERMINAL_BW [10]: 201.6 g
Bas [10]: 0%
Eos [10]: 0.8%
Fbg [10]: 211.2 mg/dL
Hb [10]: 12.2 g/dL
Ht [10]: 37.3%
Lym [10]: 80.4%
MCH [10]: 21.5 pg
MCHC [10]: 32.8%
Mono [10]: 8.4%
Neu [10]: 10.8%
PT [10]: 11.3 s
Plat [10]: 110.1 x10_4/uL
RBC [10]: 569 x10_4/ul
Ret [10]: 10.9%
WBC [10]: 116.1 x10_2/uL
KIDNEY_L [10]: 1 g
KIDNEY_R [10]: 1 g
KIDNEY_TOTAL [10]: 2 g
LIVER [10]: 9.3 g
ALP [11]: 914.4 IU/L
ALT [11]: 30.8 IU/L
AST [11]: 61.6 IU/L
BUN [11]: 11.8 mg/dL
CRE [11]: 0.5 mg/dL
DBIL [11]: 0.062 mg/dL
IP [11]: 8.3 mg/dL
K [11]: 4.7 meq/L
LDH [11]: 107.8 IU/L
Na [11]: 136.8 meq/L
PL [11]: 131.4 mg/dL
RALB [11]: 3.6 g/dL
TBIL [11]: 0.3 mg/dL
TC [11]: 74.2 mg/dL
TG [11]: 37 mg/dL
TP [11]: 5.6 g/dL
gamma-GTP [11]: 1.2 IU/L
TERMINAL_BW [12]: 205 g
Bas [12]: 0%
Eos [12]: 1%
Fbg [12]: 209.4 mg/dL
Hb [12]: 12.5 g/dL
Ht [12]: 38.1%
Lym [12]: 80.8%
MCH [12]: 21.6 pg
MCHC [12]: 32.7%
Mono [12]: 4.2%
Neu [12]: 14.6%
PT [12]: 12.1 s
Plat [12]: 109.4 x10_4/uL
RBC [12]: 578.2 x10_4/ul
Ret [12]: 11%
KIDNEY_L [12]: 1 g
KIDNEY_R [12]: 1 g
KIDNEY_TOTAL [12]: 1.9 g
LIVER [12]: 8.8 g
ALP [13]: 979 IU/L
ALT [13]: 29.4 IU/L
AST [13]: 60.2 IU/L
BUN [13]: 9.8 mg/dL
CRE [13]: 0.5 mg/dL
DBIL [13]: 0.078 mg/dL
IP [13]: 9.6 mg/dL
K [13]: 4.9 meq/L
LDH [13]: 86 IU/L
Na [13]: 137.2 meq/L
PL [13]: 108 mg/dL
RALB [13]: 3.4 g/dL
TBIL [13]: 0.4 mg/dL
TC [13]: 59 mg/dL
TG [13]: 41.2 mg/dL
TP [13]: 5.5 g/dL
gamma-GTP [13]: 1.4 IU/L
TERMINAL_BW [14]: 198.2 g
Bas [14]: 0%
Eos [14]: 0.6%
Fbg [14]: 204.6 mg/dL
Hb [14]: 12.5 g/dL
Ht [14]: 37.7%
Lym [14]: 80.8%
MCHC [14]: 33.1%
Mono [14]: 3.2%
Neu [14]: 15.2%
PT [14]: 12.6 s
Plat [14]: 110.7 x10_4/uL
RBC [14]: 576.4 x10_4/ul
Ret [14]: 9.6%
WBC [14]: 131.2 x10_2/uL
KIDNEY_L [14]: 0.9 g
KIDNEY_R [14]: 0.9 g
KIDNEY_TOTAL [14]: 1.9 g
LIVER [14]: 7.8 g
ALP [15]: 778 IU/L
ALT [15]: 30.2 IU/L
AST [15]: 61.2 IU/L
BUN [15]: 10.2 mg/dL
CRE [15]: 0.6 mg/dL
DBIL [15]: 0.066 mg/dL
GLC [15]: 209 mg/dL
K [15]: 5.2 meq/L
LDH [15]: 86 IU/L
Na [15]: 137.4 meq/L
PL [15]: 100 mg/dL
RALB [15]: 3.5 g/dL
TBIL [15]: 0.3 mg/dL
TC [15]: 56.8 mg/dL
TG [15]: 24 mg/dL
TP [15]: 5.1 g/dL
gamma-GTP [15]: 1.2 IU/L
TERMINAL_BW [16]: 201.5 g
Bas [16]: 0%
Eos [16]: 0.8%
Fbg [16]: 218.6 mg/dL
Hb [16]: 13.9 g/dL
Ht [16]: 42.3%
Lym [16]: 80.6%
MCHC [16]: 32.8%
Mono [16]: 4.6%
Neu [16]: 14.4%
PT [16]: 11.3 s
Plat [16]: 125.3 x10_4/uL
RBC [16]: 647.8 x10_4/ul
Ret [16]: 7.9%
WBC [16]: 86.8 x10_2/uL
KIDNEY_L [16]: 1 g
KIDNEY_R [16]: 1 g
KIDNEY_TOTAL [16]: 1.9 g
LIVER [16]: 9.9 g
ALP [17]: 760.8 IU/L
ALT [17]: 99 IU/L
AST [17]: 81.6 IU/L
BUN [17]: 15.2 mg/dL
CRE [17]: 0.6 mg/dL
DBIL [17]: 0.07 mg/dL
IP [17]: 7.1 mg/dL
K [17]: 5.2 meq/L
LDH [17]: 117.6 IU/L
Na [17]: 137.4 meq/L
PL [17]: 93.6 mg/dL
RALB [17]: 3.8 g/dL
TBIL [17]: 0.4 mg/dL
TC [17]: 53.6 mg/dL
TG [17]: 38.4 mg/dL
TP [17]: 5.4 g/dL
gamma-GTP [17]: 1.4 IU/L
